The results in this text go back to patent US11564928B1, “Cannabinoid receptor type 2 (CB2) modulators and uses thereof” (Teon Therapeutics, Inc., priority 2020, dated 2023).

In assay [1] the target is human recombinant CB1R (Homo sapiens (Human), UniProt P21554). The assay can be described thus: CB1 receptor binding assay ([3H]CP-55,940 displacement, HEK-293 membranes). To be noted: membranes of HEK-293 cells with human recombinant CB1R, [3H]CP-55,940, read-out: CB1 IC50. The procedure, abridged: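 Membranes from HEK-293 cells expressing human recombinant CB1R or CB2R were incubated with [3H]CP-55,940 and compound for 120 min at 37 °C in duplicate. The CB2R incubation buffer was 50 mM Tris-HCl, 5 mM MgCl2, 1 mM CaCl2, 0.2% BSA, pH 7.4. Bound radioactivity was filtered and counted, and IC50 was converted to Ki by Cheng–Prusoff.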

Assay [2] addresses human CB2 receptor (Homo sapiens (Human), UniProt P34972). Kind of assay: CB2 receptor binding assay ([3H]CP-55,940 displacement, HEK-293 membranes).
[3] abbreviates: membranes of HEK-293 cells with human recombinant CB2R, [3H]CP-55,940, read-out: CB2 IC50.
Setting [4] is: membranes of HEK-293 cells with human recombinant CB2R, [3H]CP-55,940, class symbols, read-out: CB2 IC50.

Structures are written as SMILES. Where two headings read alike, the source gives them in different places.

human recombinant CB1R, sequence (P21554 whole entry): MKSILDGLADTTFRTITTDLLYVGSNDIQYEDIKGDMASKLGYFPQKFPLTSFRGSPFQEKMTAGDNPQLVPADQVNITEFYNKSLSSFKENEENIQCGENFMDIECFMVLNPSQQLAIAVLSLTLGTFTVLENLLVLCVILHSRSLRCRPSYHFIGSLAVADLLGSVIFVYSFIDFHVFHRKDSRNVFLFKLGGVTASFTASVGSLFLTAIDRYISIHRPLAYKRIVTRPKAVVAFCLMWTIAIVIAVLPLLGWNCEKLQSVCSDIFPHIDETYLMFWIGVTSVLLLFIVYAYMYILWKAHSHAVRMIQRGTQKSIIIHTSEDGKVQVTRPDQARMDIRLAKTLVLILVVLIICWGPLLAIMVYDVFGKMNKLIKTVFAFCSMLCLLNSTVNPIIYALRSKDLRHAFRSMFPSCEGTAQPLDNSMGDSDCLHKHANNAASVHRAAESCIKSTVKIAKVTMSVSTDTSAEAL
human CB2 receptor, sequence (P34972 whole entry): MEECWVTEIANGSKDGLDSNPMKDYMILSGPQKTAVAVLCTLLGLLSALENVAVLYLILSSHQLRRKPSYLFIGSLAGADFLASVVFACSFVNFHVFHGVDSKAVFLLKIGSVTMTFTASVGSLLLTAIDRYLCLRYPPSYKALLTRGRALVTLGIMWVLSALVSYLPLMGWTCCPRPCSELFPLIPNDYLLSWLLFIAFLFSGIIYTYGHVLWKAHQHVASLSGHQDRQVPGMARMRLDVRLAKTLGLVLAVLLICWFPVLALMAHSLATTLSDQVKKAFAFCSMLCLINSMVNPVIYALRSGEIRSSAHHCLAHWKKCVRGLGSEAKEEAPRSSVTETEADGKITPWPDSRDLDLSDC

For orientation: IC50 means the concentration that gives 50% inhibition. Take `O=C(NC12CCC(C1)C2)c1c(O)c2cc(-c3ccc(F)cc3)cnc2n(CCN2CCOCC2)c1=O` [Compound 115, N-(bicyclo[2.1.1]hexan-1-yl)-6-(4-fluorophenyl)-4-hydroxy-1-(2-morpholinoethyl)-2-oxo-1,2-dihydro-1,8-naphthyridine-3-carboxamide]: the IC50 in assay [1] is 552 nM; in assay [2] (setting [3]), 29 nM.

As to `O=C(NC12CCC(CC1)CC2)c1c(O)c2cc(-c3ccc(F)cc3)cnc2n(CCN2CCOCC2)c1=O` [Compound 116, N-(bicyclo[2.2.2]octan-1-yl)-6-(4-fluorophenyl)-4-hydroxy-1-(2-morpholinoethyl)-2-oxo-1,2-dihydro-1,8-naphthyridine-3-carboxamide], the IC50 in assay [1] was 1480 nM; in assay [2] (setting [3]), 31 nM.

As to `CC(C)(CO)NC(=O)c1c(O)c2cc(-c3ccc(F)cc3)cnc2n(CCN2CCOCC2)c1=O` [Compound 117, 6-(4-fluorophenyl)-4-hydroxy-N-(1-hydroxy-2-methylpropan-2-yl)-1-(2-morpholinoethyl)-2-oxo-1,2-dihydro-1,8-naphthyridine-3-carboxamide], the figures for the 50% inhibitory concentration (IC50) in assay [1] (class symbols) and in assay [2] were above 1000 nM and 100 to 999 nM, respectively.

Turning to `CC(C)(C)NC(=O)c1c(O)c2cc(-c3ccc(F)cc3)cnc2n(CCN2CCOCC2)c1=O` [Compound 118, N-(tert-butyl)-6-(4-fluorophenyl)-4-hydroxy-1-(2-morpholinoethyl)-2-oxo-1,2-dihydro-1,8-naphthyridine-3-carboxamide], the IC50 in assay [1] (class symbols) is above 1000 nM; in assay [2], 100 to 999 nM.

For `COC(=O)C(C)(C)NC(=O)c1c(O)c2cc(-c3ccc(F)cc3)cnc2n(CCN2CCOCC2)c1=O` [Compound 119, methyl 2-(6-(4-fluorophenyl)-4-hydroxy-1-(2-morpholinoethyl)-2-oxo-1,2-dihydro-1,8-naphthyridine-3-carboxamido)-2-methylpropanoate], the IC50 in assay [1] (class symbols) is above 1000 nM; in assay [2], 100 to 999 nM.

As for `CC(C)(NC(=O)c1c(O)c2cc(-c3ccc(F)cc3)cnc2n(CCN2CCOCC2)c1=O)C(=O)O` [Compound 120, 2-(6-(4-fluorophenyl)-4-hydroxy-1-(2-morpholinoethyl)-2-oxo-1,2-dihydro-1,8-naphthyridine-3-carboxamido)-2-methylpropanoic acid], the IC50 in assay [1] (class symbols) and in assay [2] (setting [4]) was above 1000 nM in each case.

On to `O=C(NC1(CO)CCCCC1)c1c(O)c2cc(-c3ccc(F)cc3)cnc2n(CCN2CCOCC2)c1=O` [Compound 121, 6-(4-fluorophenyl)-4-hydroxy-N-(1-(hydroxymethyl)cyclohexyl)-1-(2-morpholinoethyl)-2-oxo-1,2-dihydro-1,8-naphthyridine-3-carboxamide], for which the half-maximal inhibitory concentration (IC50) is 2320 nM in assay [1] and 9 nM in assay [2] (setting [3]).

Take `O=C(NC12CC(C1)C2)c1c(O)c2cc(-c3ccc(F)cn3)cnc2n(CCN2CCOCC2)c1=O` [Compound 122, N-(bicyclo[1.1.1]pentan-1-yl)-6-(5-fluoropyridin-2-yl)-4-hydroxy-1-(2-morpholinoethyl)-2-oxo-1,2-dihydro-1,8-naphthyridine-3-carboxamide]: the IC50 in assay [1] (class symbols) was above 1000 nM; in assay [2], 100 to 999 nM.

`O=C(NC12CC(C1)C2)c1c(O)c2cc(-c3cccnc3)cnc2n(CCN2CCOCC2)c1=O` [Compound 123, N-(bicyclo[1.1.1]pentan-1-yl)-4-hydroxy-1-(2-morpholinoethyl)-2-oxo-6-(pyridin-3-yl)-1,2-dihydro-1,8-naphthyridine-3-carboxamide]: the concentration for half-maximal inhibition (IC50) in assay [1] (class symbols) and in assay [2] (setting [4]) was above 1000 nM each time.

Consider `O=C(NC12CC(C1)C2)c1c(O)c2cc(-c3ccncc3)cnc2n(CCN2CCOCC2)c1=O` [Compound 124, N-(bicyclo[1.1.1]pentan-1-yl)-4-hydroxy-1-(2-morpholinoethyl)-2-oxo-6-(pyridin-4-yl)-1,2-dihydro-1,8-naphthyridine-3-carboxamide], for which the IC50 in assay [1] (class symbols) and in assay [2] (setting [4]) was above 1000 nM in each case.

For `O=C(NC12CC(C1)C2)c1c(O)c2cc(C3=CCCC3)cnc2n(CCN2CCOCC2)c1=O` [Compound 125, N-(bicyclo[1.1.1]pentan-1-yl)-6-(cyclopent-1-en-1-yl)-4-hydroxy-1-(2-morpholinoethyl)-2-oxo-1,2-dihydro-1,8-naphthyridine-3-carboxamide], the figures for the IC50 in assay [1] (class symbols) and in assay [2] were above 1000 nM and 100 to 999 nM, respectively.

Consider `O=C(NC12CC(C1)C2)c1c(O)c2cc(C3CCCC3)cnc2n(CCN2CCOCC2)c1=O` [Compound 126, N-(bicyclo[1.1.1]pentan-1-yl)-6-cyclopentyl-4-hydroxy-1-(2-morpholinoethyl)-2-oxo-1,2-dihydro-1,8-naphthyridine-3-carboxamide], for which the concentration for half-maximal inhibition (IC50) in assay [1] (class symbols) and in assay [2] (setting [4]) was above 1000 nM throughout.

As for `O=C(NC12CC(C1)C2)c1c(O)c2cc(C3CCC3)cnc2n(CCN2CCOCC2)c1=O` [Compound 127, N-(bicyclo[1.1.1]pentan-1-yl)-6-cyclobutyl-4-hydroxy-1-(2-morpholinoethyl)-2-oxo-1,2-dihydro-1,8-naphthyridine-3-carboxamide], the half-inhibitory concentration (IC50) in assay [1] (class symbols) and in assay [2] (setting [4]) was above 1000 nM in each case.

On to `O=C(NC12CC(C1)C2)c1c(O)c2cc(-c3ccc(F)cc3)cnc2n(CCN2CCCCC2)c1=O` [Compound 128, N-(bicyclo[1.1.1]pentan-1-yl)-6-(4-fluorophenyl)-4-hydroxy-2-oxo-1-(2-(piperidin-1-yl)ethyl)-1,2-dihydro-1,8-naphthyridine-3-carboxamide], for which the IC50 in assay [1] (class symbols) was above 1000 nM; in assay [2], 100 to 999 nM.

`O=C(NC12CC(C1)C2)c1c(O)c2cc(-c3ccc(F)cc3)cnc2n(Cc2ccncc2)c1=O` [Compound 129, N-(bicyclo[1.1.1]pentan-1-yl)-6-(4-fluorophenyl)-4-hydroxy-2-oxo-1-(pyridin-4-ylmethyl)-1,2-dihydro-1,8-naphthyridine-3-carboxamide]: the IC50 in assay [1] (class symbols) and in assay [2] (setting [4]) was above 1000 nM throughout.

For `O=C(NC12CC(C1)C2)c1c(O)c2cc(-c3ccc(F)cc3)cnc2n(Cc2cccnc2)c1=O` [Compound 130, N-(bicyclo[1.1.1]pentan-1-yl)-6-(4-fluorophenyl)-4-hydroxy-2-oxo-1-(pyridin-3-ylmethyl)-1,2-dihydro-1,8-naphthyridine-3-carboxamide], the IC50 in assay [1] (class symbols) and in assay [2] (setting [4]) was above 1000 nM each time.

`O=C(NC12CC(C1)C2)c1c(O)c2cc(-c3ccc(F)cc3)cnc2n(Cc2ccc(F)cn2)c1=O` [Compound 131, N-(bicyclo[1.1.1]pentan-1-yl)-6-(4-fluorophenyl)-1-((5-fluoropyridin-2-yl)methyl)-4-hydroxy-2-oxo-1,2-dihydro-1,8-naphthyridine-3-carboxamide]: the IC50 in assay [1] (class symbols) and in assay [2] (setting [4]) was above 1000 nM in each case.

As for `CN1CCN(CCn2c(=O)c(C(=O)NC34CC(C3)C4)c(O)c3cc(-c4ccc(F)cc4)cnc32)CC1` [Compound 132, N-(bicyclo[1.1.1]pentan-1-yl)-6-(4-fluorophenyl)-4-hydroxy-1-(2-(4-methylpiperazin-1-yl)ethyl)-2-oxo-1,2-dihydro-1,8-naphthyridine-3-carboxamide], the IC50 in assay [1] (class symbols) is above 1000 nM; in assay [2], 100 to 999 nM.

Turning to `O=C(NC12CC(C1)C2)c1c(O)c2cc(-c3ccc(F)cc3)cnc2n(CCN2CCC(F)CC2)c1=O` [Compound 133, N-(bicyclo[1.1.1]pentan-1-yl)-6-(4-fluorophenyl)-4-hydroxy-2-oxo-1-(2-(4-fluoropiperidin-1-yl)ethyl)-1,2-dihydro-1,8-naphthyridine-3-carboxamide], the IC50 was above 1000 nM in assay [1] (class symbols) and 100 to 999 nM in assay [2].

For `O=C(NC1CC2(CCC2)C1)c1c(O)c2cccnc2n(Cc2ccc(F)cc2)c1=O` [Compound 134, 1-(4-fluorobenzyl)-4-hydroxy-2-oxo-N-(spiro[3.3]heptan-2-yl)-1,2-dihydro-1,8-naphthyridine-3-carboxamide], the values for the IC50 in assay [1] (class symbols) and in assay [2] were above 1000 nM and 100 to 999 nM, respectively.

As to `O=C(NC1CC2(CCC2)C1)c1c(O)c2cccnc2n(CCN2CCOCC2)c1=O` [Compound 135, 4-hydroxy-2-oxo-1-(2-morpholinoethyl)-N-(spiro[3.3]heptan-2-yl)-1,2-dihydro-1,8-naphthyridine-3-carboxamide], the figures for the 50% inhibitory concentration (IC50) in assay [1] (class symbols) and in assay [2] (setting [4]) were above 1000 nM and below 100 nM, respectively.

As for `O=C(NC12CC(C1)C2)c1c(O)c2cccnc2n(CCN2CCOCC2)c1=O` [Compound 136, N-(bicyclo[1.1.1]pentan-1-yl)-4-hydroxy-1-(2-morpholinoethyl)-2-oxo-1,2-dihydro-1,8-naphthyridine-3-carboxamide], the IC50 in assay [1] (class symbols) and in assay [2] (setting [4]) was above 1000 nM in each case.

Turning to `C[C@H]1CC[C@@H](NC(=O)c2c(O)c3cccnc3n(CCN3CCOCC3)c2=O)CC1` [Compound 137, 4-hydroxy-N-((1s, 4s)-4-methylcyclohexyl)-1-(2-morpholinoethyl)-2-oxo-1,2-dihydro-1,8-naphthyridine-3-carboxamide], the values for the IC50 in assay [1] and in assay [2] (setting [3]) were above 10000 nM and 15 nM, respectively.

On to `O=C(NC1(CO)CCCCC1)c1c(O)c2cccnc2n(CCN2CCOCC2)c1=O` [Compound 138, 4-hydroxy-N-[1-(hydroxymethyl)cyclohexyl]-1-(2-morpholinoethyl)-2-oxo-1,8-naphthyridine-3-carboxamide], for which the results for the IC50 in assay [1] (class symbols) and in assay [2] were above 1000 nM and 100 to 999 nM, respectively.

For `O=C(NC12CC(C1)C2)c1c(O)c2cccnc2n(Cc2ccc(F)cc2)c1=O` [Compound 139, N-(1-bicyclo[1.1.1]pentanyl)-1-[(4-fluorophenyl)methyl]-4-hydroxy-2-oxo-1,8-naphthyridine-3-carboxamide], the IC50 in assay [1] (class symbols) and in assay [2] (setting [4]) was above 1000 nM in each case.
